Assay results: patent publication US20170173106A1, “Polypeptide Fragments of 168A-T2 and Compositions Comprising Them for Use in Treating Cancer” (GENE SIGNAL INTERNATIONAL SA, priority 2014, published 2017)

Experiments:
[1] = target: T1, CD9P-1 and CD81 association (Homo sapiens, UniProt P60033+Q9P2B2); assay: Immunoprecipitation in HUVECs: CD9P-1 with CD81; format: cell-based; conditions: 33 μM; 2 hrs
T1 construct: endogenous in cells; host or cells: HUVEC
T1 sequence (Q9P2B2 26-879): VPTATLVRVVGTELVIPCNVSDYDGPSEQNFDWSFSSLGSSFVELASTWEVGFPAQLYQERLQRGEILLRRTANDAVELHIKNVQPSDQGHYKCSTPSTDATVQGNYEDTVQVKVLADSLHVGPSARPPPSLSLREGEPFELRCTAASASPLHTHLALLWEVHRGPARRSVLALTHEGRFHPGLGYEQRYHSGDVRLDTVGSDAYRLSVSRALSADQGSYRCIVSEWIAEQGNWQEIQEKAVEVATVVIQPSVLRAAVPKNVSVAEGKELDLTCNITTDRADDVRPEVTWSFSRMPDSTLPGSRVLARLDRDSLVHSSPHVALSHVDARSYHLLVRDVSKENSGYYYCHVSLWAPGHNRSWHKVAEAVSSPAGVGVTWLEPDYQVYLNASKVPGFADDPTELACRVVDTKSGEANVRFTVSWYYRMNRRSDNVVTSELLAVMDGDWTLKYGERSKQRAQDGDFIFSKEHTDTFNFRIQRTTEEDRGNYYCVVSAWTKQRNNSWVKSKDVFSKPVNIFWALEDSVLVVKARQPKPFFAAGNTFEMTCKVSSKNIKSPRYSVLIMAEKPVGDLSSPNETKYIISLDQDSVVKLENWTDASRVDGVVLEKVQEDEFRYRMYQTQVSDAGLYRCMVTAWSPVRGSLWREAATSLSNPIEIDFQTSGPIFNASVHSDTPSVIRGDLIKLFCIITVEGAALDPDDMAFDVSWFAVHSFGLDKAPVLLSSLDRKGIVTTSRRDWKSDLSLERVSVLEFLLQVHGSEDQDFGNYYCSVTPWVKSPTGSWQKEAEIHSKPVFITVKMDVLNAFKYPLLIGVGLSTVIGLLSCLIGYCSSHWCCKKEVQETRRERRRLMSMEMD
T1 sequence (P60033 1-236): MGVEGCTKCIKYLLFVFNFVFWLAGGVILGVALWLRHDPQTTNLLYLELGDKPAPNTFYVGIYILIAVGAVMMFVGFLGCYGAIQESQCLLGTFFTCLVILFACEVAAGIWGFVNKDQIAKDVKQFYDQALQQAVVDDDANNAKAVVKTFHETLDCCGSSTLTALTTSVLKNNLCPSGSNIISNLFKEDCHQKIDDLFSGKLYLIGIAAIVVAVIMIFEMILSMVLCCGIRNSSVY
Experimental: FIG. 13 is a photograph representing the dissociation of CD9-CD9P-1, CD9P-1-CD151 and CD9-CD151 complexes by P3 in HUVECs. HUVECs incubated for 2 h with 33 μM P3, PCT or solvent in EGM2-MV medium were lysed in brij 97 buffer, then CD81, CD9 or CD151 were immunoprecipitated with the corresponding antibody. Line A: Western blot results obtained with anti-CD9P-1 antibody from immunoprecipitated CD81, CD9 and CD151. Line B: Western blot results obtained with anti-CD9 antibody from immunoprecipitated CD81, CD9 and CD151. Line C: Western blot results obtained with anti-CD151 antibody from immunoprecipitated CD81, CD9 and CD151. PCT: control peptide. IP: immunoprecipitation.
To study more precisely the effect of P3 on the associations of tetraspanins CD9, CD81, and CD151 between them and with CD9P-1, immunoprecipitation (IP) experiments were performed. In the control experiment (with the solvent), CD9P-1 co-precipitated with CD9 and CD81. A weak co-precipitation was observed between […] and CD151. The associations between tetraspanins and CD9P-1 are not modified under PCT condition. However, the interactions between CD9P-1 and CD9 and between CD9P-1 and CD151 are decreased while the HUVECs are incubated for 2 hrs with 33 μM of P3. The association between CD9P-1 and CD81 is not modified by P3 (FIG. 13A).

endostatin = assay: Endostatin production by HUVECs (ELISA); format: cell-based, human; conditions: rising concentrations; 48 hrs
Experimental: HUVECs were transfected with siRNA using transfecting agent GENJET according to the manufacturer's instructions. After 48 hrs of incubation, supernatants were collected, protein expression tested by western blots and endostatin quantified.
Endostatin levels were quantified by ELISAs on lysates of HUVECs incubated at rising concentrations of P3 or PCT for 48 hrs.
In order to evaluate the role of metalloproteinases (MMPs) in endostatin production, a polyvalent inhibitor of MMPs, GM6001 was used. The concentration of endostatin in supernatants is at 6.2 ng/mg of protein of the lysates/48 hrs. […] GM6001 inhibits endostatin production induced by P3. MMPs might then be implicated in endostatin production induced by P3.
HUVECs were incubated for 48 hrs in an EGM2-MV media with an anti-CD151 antibody (11G5a) or an irrelevant antibody (negative control unable to recognize any protein). Then endostatin levels were measured by ELISA in supernatants.
HUVECs cells were transfected with specific siRNA of CD151 and CD9. Protein expression was analyzed in western blots. In parallel, endostatin levels were measured by ELISA in supernatants. […] Levels of endostatin in supernatant of HUVECs cells transfected with siRNA were measured. […] On the contrary, levels of endostatin increased at 9.4 ng/mg of protein lysates/48 hrs in HUVECs depleted in CD151 (FIG. 18B). CD151 is thus involved in the production of endostatin.

HUVECs [2] = assay: Cellular proliferation test (MTT) on HUVECs; format: cell-based, human; conditions: 48 h
Experimental: Evaluation of cellular proliferation was performed using 4,5-diMethylThiazol-2-yl)-2,5 diphenylTetrazolium bromide (MTT) test. After 18 hrs of culture, the media was changed by EBM2 supplemented with gentamycine and 5% SVF. Different concentrations of peptides were added under a volume of 10 μL/well. Cells were incubated for 48 hrs at 37° C. MTT was added (50 μL/well) to the cells for 3 hrs.
Cells were grown for 48 h in EGM2-MV and proliferation was quantified by MTT assay.

HUVECs [3] = assay: Capillaries formation by HUVECs on Matrigel; format: cell-based, human; conditions: 6.5 μM, 13 μM and 33 μM, 18 h
Experimental: Evaluating the formation of capillaries on Matrigel® was performed by angiogenesis test in vitro described in Grant et al (1989 Cell 58, 933-943). Matrigel® was dropped down the wells of the 96 well plates and maintained for 30 min at 37° C. for the Matrigel® solidification. HUVECs cells were then seeded and 50 μL, of peptide added.
Plates were then incubated for 18 hrs at 37° C. cells were then washed with calcein solution (50 μL/well at 8 μM) and incubated for 20 min. HUVECs alive metabolize calcein in a green fluorescent component.
Peptides were added to the culture medium (EGM2-MV) at concentrations 6.5 μM, 13 μM and 33 μM after inoculation of cells. Plates were incubated at 37° C. for 18 h. Fluorescence labeling was achieved by addition of calcein. Pictures were shot with a fluorescence microscope equipped with a camera (zoom ×40).

## NQKGCYDLVT (control peptide) [PCT]
[1]
  association between CD9P-1 and CD81: not modified
endostatin
  level of endostatin compared to the solvent condition: does not modify the level of endostatin
HUVECs [2]
  effect on HUVECs proliferation: No effect
HUVECs [3]
  capillary tubes formation (capillaries length and junctions number): no effect
